Source: patent publication US20070087985A1, “MRCK-related compositions and methods” (priority 2005, published 2007)

How the values were obtained:
Type in all cases: cell-based
[1] = test system: starved wound edge NIH-3T3 cells; assay: Determination of nucleus and MTOC position relative to the cell centroid; settings: for effect on rearward nuclear movement induced by LPA / effect on the position of the MTOC: pre-treatment with 0.5 μM CD or 50 μM BB; for effect on rearward nuclear movement induced by LPA / effect on the position of the MTOC / effect on LPA-induced rearward nuclear movement: 2 μM LPA, 2 hr; for rearward nuclear movement in starved cells without LPA: microinjected protein or expressed DNA
Experimental: (§1) NIH-3T3 cells were cultured in DMEM with 10% calf serum, serum starved for 2 days and wounded as previous described (9, 21).
(§2) Plasmid DNA was purified using Plasmid Midi Kit (Qiagen, Valencia, Calif.) and was microinjected into nuclei as described (38). Expression was detectable within 1-2 hr. Proteins were microinjected as described (9, 39). DIC mAb 74.1 (from K. Pfister, U. of Virginia), was microinjected at 10 mg/ml and Cdc42, Rac and Rho GTPases were microinjected at 1 mg/ml. For double microinjections, 100 μg/ml DNA (MRCK-WT or MRCK-CPC) was injected into the nucleus with 2 mg/ml fluorescein-ovalbumin. After 30 min, labelled cells were injected with DIC mAb, L61Cdc42 or human IgG as a control.
(§3) Phase contrast and fluorescence images of cells stained for pericentrin or γ-tubulin, β-catenin, DNA, expression tag, MTs. (Tyr tubulin) or injection marker were acquired as described (38, 39). MTOC reorientation was determined as previously described (39). For analysis of nucleus and MTOC position, images were pseudo-colored, aligned with the wound parallel to the X axis and then combined using Metamorph software. The cell perimeter was drawn over the cell-cell contacts (β-catenin, expression tags or injection markers) and the wound edge (Tyr-tubulin or injection markers) and the cell centroid was calculated using Metamorph software. Similarly, the nuclear perimeter was drawn and the centroid of the nucleus calculated. A vector representing the distances from the centroid of the nucleus and the MTOC (γ-tubulin or pericentrin staining and MT focus) to the cell centroid was drawn and resolved into X and Y coordinates (parallel and perpendicular to the leading edge, respectively). To allow comparison between cells, measurements were normalized to cell size. […] At least 30 cells from 3 independent experiments were analysed for each condition and error bars in plots are SEM.

[2] = test system: starved wound edge NIH-3T3 cells; assay: MTOC reorientation in wounded starved monolayers (fixed, stained cells); settings: for effect on MTOC reorientation induced by LPA: pre-treatment with 0.5 μM CD or 50 μM BB; for MTOC reorientation in starved cells without LPA: microinjected protein or expressed DNA, no other treatment
Experimental: as §1, §2, §3

[3] = test system: wound edge NIH-3T3 cells; assay: Actin distribution (phalloidin staining)
Experimental: Actin retrograde flow is involved in nuclear movement. A. Region of 3T3-GFPTub cell used for kymograph in B. B. Kymograph showing retrograde movement of MTs and nucleus before and after 2 μM LPA addition. […] The nucleus is the broad dark band at the bottom of the kymograph and begins moving rearward in concert with MTs. C, D. Wound edge starved NIH-3T3 cells were microinjected with R-actin and time lapse images of actin speckles were acquired before (C) or after (D) addition of 2 μM LPA. Kymographs of a region of the lamella are shown (separate cells are shown in C and D). Actin speckles (arrowheads) remain stationary in the absence of LPA (C) but move away from the leading edge upon LPA addition (D). Note that the nucleus remains stationary in the absence of LPA (C) but moves rearward at the same rate as actin speckles after LPA addition (D). E. Starved wounded monolayers of NIH-3T3 cells were either left untreated or treated with 2 μM LPA with or without BB or CD as indicated. After 2 hr, coverslips were fixed, stained and the extent of MTOC reorientation determined. The level of random “reorientation” is ˜33%. F. The average positions of the MTOC and nucleus from the cells treated as in E were determined and plotted. G. Actin distribution (phallodin staining) in wound edge NIH-3T3 cells treated as indicated. Bar, G: 10 μm.
Cdc42 and MRCK activate nuclear movement to reorient the MTOC. A. Starved wound edge NIH-3T3 cells were injected with L61Cdc42, N17Cdc42 or Pak-CRIB domain proteins and then treated with 2 μM LPA for 2 hr. Cells were then fixed, stained and the positions of the nucleus and MTOC were determined. […] After expression (2 hr) cells were treated with 2 μM LPA for 2 hr, fixed, stained and the extent of MTOC reorientation determined. […] After expression (3 hr), cells were fixed, stained and the extent of MTOC reorientation was determined. D, E. Average nucleus and MTOC positions of cells from B and C were determined and plotted. […] Cells were fixed and stained and the percentage of expressing cells remaining at the wound edge determined. […]

[4] = test system: starved wound edge NIH-3T3 cells; assay: Migration of expressing wound edge cells after serum stimulation; settings: DNA microinjection, serum for 12 h
Experimental: Cdc42 and MRCK activate nuclear movement to reorient the MTOC. A. Starved wound edge NIH-3T3 cells were injected with L61Cdc42, N17Cdc42 or Pak-CRIB domain proteins and then treated with 2 μM LPA for 2 hr. Cells were then fixed, stained and the positions of the nucleus and MTOC were determined. MTOC reorientation is indicated as YES (>60%); NO (<40%). B. Starved wound edge NIH-3T3 cells were injected with DNA encoding myc-hPAK1 (hPAK1(83-149)), HA-MRCK-TM or Flag-MRCK-CPC. After expression (2 hr) cells were treated with 2 μM LPA for 2 hr, fixed, stained and the extent of MTOC reorientation determined. C. Serum starved wound edge NIH-3T3 cells were injected with DNA encoding […] HA-L61Cdc42, HA-L61Cdc42 plus flag-MRCK-CPC or flag-MRCK-WT (MRCK-WT). After expression (3 hr), cells were fixed, stained and the extent of MTOC reorientation was determined. D, E. Average nucleus and MTOC positions of cells from B and C were determined and plotted. F. Representative images of cells microinjected with the indicated constructs and treated with LPA as indicated before fixing and staining. Arrows indicate cells with expressed protein (green), pericentrin and β-catenin (red) and DNA (blue). G. Actin (phalloidin staining) in a cell injected with MRCK-TM (arrow) and treated with LPA. […] Cells were fixed and stained and the percentage of expressing cells remaining at the wound edge determined. […]

[5] = test system: pSer19 MLC; assay: Phospho-Ser19 MLC quantification; settings: starved wound edge cells, injected, fixed 2.5 hr later
Experimental: Total cell extracts prepared in SDS sample buffer were analyzed by western blotting as described (38). For quantification of pSer19-MLC immunofluorescence, average cellular fluorescence intensity was determined with Metamorph software after subtracting background fluorescence (determined for an adjacent cell-free area). Data is from at least two independent experiments and error bars in plots are SEM.

[6] = 100 nM nocodazole with LPA for 2h
[7] = microinjected protein, antibody or expressed DNA construct
[8] = microinjected protein, antibody or expressed DNA construct, 2 μM LPA, 2 hr
[9] = co-expression with HA-L61Cdc42, 3 hr

Cc1ccc2c(c1)C(=O)C1(O)CCN(c3ccccc3)C1=N2 (stereo not drawn) [BB, blebbistatin, reference compound]
effect on rearward nuclear movement induced by LPA [1]: blocked
effect on the position of the MTOC [1]: without affecting
effect on MTOC reorientation induced by LPA ([2]; 2 μM LPA, 2 hr): blocked
effect on LPA-induced changes in the actin cytoskeleton ([3]; CD or BB with 2 μM LPA): blocked

COC(=O)Nc1nc2ccc(C(=O)c3cccs3)cc2[nH]1 [nocodazole, reference compound]
MTOC position upon nocodazole wash out ([1]; 100 nM nocodazole washed out, medium with LPA for another 2h): the MTOC returned to the cell center
effect on MTOC centration [1, 6]: interfering with MTOC centration
effect on nuclear movement [1, 6]: not with nuclear movement
effect on LPA-induced MTOC reorientation [2, 6]: blocked MTOC reorientation

MRCK-TM: dominant negative full length MRCKa with K106A, H1579A and H1582A mutations
effect on LPA-induced rearward nuclear movement [1, 7]: blocking the rearward movement of the nucleus
effect on LPA-induced MTOC reorientation [2, 8]: blocked MTOC reorientation
effect on cell migration (expressing cells remaining at the wound edge) [4]: migration was inhibited
effect on LPA-induced changes in the actin cytoskeleton ([3]; cell injected with DNA construct, treated with LPA): did not have a major effect

N17Cdc42: dominant-negative N17Cdc42 protein
effect on LPA-induced rearward nuclear movement [1, 7]: blocked

wild type MRCK: wild type full length Rat MRCKa
position of the MTOC in starved cells without LPA ([1]; expressed DNA, no other treatment): maintaining the MTOC at the cell centroid
rearward nuclear movement in starved cells without LPA ([1]; no other treatment): induced
pSer19 MLC immunofluorescence compared to noninjected cells [5]: increased
MTOC reorientation in starved cells without LPA [2]: induced
effect on cell migration (expressing cells remaining at the wound edge) [4]: no effect on cell migration

L61Cdc42: constitutively active L61Cdc42 protein (microinjected) or HA-L61Cdc42 DNA
rearward nuclear movement in starved cells without LPA ([1]; no other treatment): induced rearward nuclear movement
pSer19 MLC immunofluorescence compared to noninjected cells [5]: substantially increased
MTOC reorientation in starved cells without LPA [2]: resulted in MTOC reorientation

C=C1[C@@H](C)[C@H]2[C@H](Cc3ccccc3)NC(=O)[C@]23[C@H](OC(C)=O)/C=C/[C@@](C)(O)C(=O)[C@@H](C)C/C=C/[C@H]3[C@@H]1O [CD, cytochalasin D, reference compound]
effect on rearward nuclear movement induced by LPA [1]: blocked
effect on the position of the MTOC [1]: without affecting
effect on MTOC reorientation ([2]; lower concentrations of CD (below 0.5 μM)): had no effect
effect on MTOC reorientation induced by LPA ([2]; 2 μM LPA, 2 hr): blocked
effect on LPA-induced changes in the actin cytoskeleton ([3]; CD or BB with 2 μM LPA): blocked

B1: hpak1(83-149): N-terminal autoregulatory domain of Pak1, which inhibits Pak1 activity (protein, UniProt Q13153 83-149, looked up, fragment)
chain: HTIHVGFDAVTGEFTGMPEQWARLLQTSNITKSEQKKNPQAVLDVLEFYNSKKTSNSQKYMSFTDKS
modifications: myc tag
effect on LPA-induced rearward nuclear movement [1, 7]: moved their nuclei rearward
effect on LPA-induced MTOC reorientation [2, 8]: still reoriented their MTOC

B2: MRCK-CPC: dominant negative truncated MRCKa, aa930-1492, lacks kinase domain and GTPase binding domain (protein, UniProt O54874 930-1492, looked up, fragment)
chain: QLIKDTEELRSEKGVEHRDSQHSFLAFLNTPTDALDQFERSPSCTPAGKGRRIADSAPLPVHTPTLRKKGCPASAGFPPKRKTHQFFVKSFTAPTKCHQCTSLMVGLIRQGCSCEVCGFSCHITCVNKAPTTCPVPPEQTKGPLGIDPQKGVGTAYEGHVRIPKPAGVKKGWQRALAVVCDFKLFLYDIAEGKASQPSSVISQVIDMRDEEFSVSSVLASDVIHASRKDIPCIFRVTASQLSAPSDKCSILMLADSETERSKWVGVLSELHKVLKKNKFRDRSVYVPKEAYDSTLPLIKTTQAAAIIDHERVALGNEEGLFVVHVTKDEIIRVGDNKKIHQIELIPSDQLVAVISGRNRHVRLFPMSALDGRETDFYKLAETKGCQTIAAGKVRHGALSCLCVAMKRQVLCYELFQSKTRHRKFKEIQVPCNVQWMAIFSEHLCVGFQSGFLRYPLNGEGSPCNMLHSNDHTLAFITHQPMDAICAVEISNKEYLLCFSSIGIYTDCQGRRSRQQELMWPANPSSCCYNAPYLSIYSENAVDIFDVNSMEWIQTLPLKKVRPL
modifications: Flag tag
effect on nuclear movement induced by L61Cdc42 [1, 9]: inhibited
effect on LPA-induced rearward nuclear movement [1, 7]: blocking the rearward movement of the nucleus
pSer19 MLC immunofluorescence compared to noninjected cells [5]: no effect
effect on MTOC reorientation induced by L61Cdc42 [2, 9]: inhibited
effect on LPA-induced MTOC reorientation [2, 8]: blocked MTOC reorientation

B3: Par6: full length mouse Par-6 in pFLAG CMV2 (protein, UniProt Q9Z101 1-346, looked up)
chain: MARPQRTPARSPDSIVEVKSKFDAEFRRFALPRTSVRGFQEFSRLLCVVHQIPGLDVLLGYTDAHGDLLPLTNDDSLHRALASGPPPLRLLVQKRAEGDSSGLAFASNSLQRRKKGLLLRPVAPLRTRPPLLISLPQDFRQVSSVIDVDLLPETHRRVRLHKHGSDRPLGFYIRDGMSVRVAPQGLERVPGIFISRLVRGGLAESTGLLAVSDEILEVNGIEVAGKTLDQVTDMMVANSHNLIVTVKPANQRNNVVRGASGRLTGPSSVGPGPTDPDSDDDSSDLVIENRHPPCSNGLSQGPLCWDLQPGCLLPGAGSSLPSLDSREQANSGWGNGMRGDVSGFSL
modifications: full-length Flag tag
notes: full length mouse Par-6 in pFLAG CMV2
effect on LPA-induced rearward nuclear movement [1, 7]: unaffected
position of the MTOC relative to the cell centroid ([1]; microinjected protein, antibody or expressed DNA construct, LPA-treated (L61Cdc42 without LPA)): displacement of the MTOC from its position at the centroid
effect on LPA-induced MTOC reorientation [2, 8]: blocked
